Assay results: BindingDB's records for doi:10.1016/j.bmc.2006.09.058 (Purdue University, 2007)

Biological target: Sodium-dependent serotonin transporter (Homo sapiens, UniProt P31645, W103C)
Test: Decrease in [3H]5-HT uptake at human SERT W103C mutant transfected in HEK293 cells

Sequence of Sodium-dependent serotonin transporter (P31645 whole entry W103C): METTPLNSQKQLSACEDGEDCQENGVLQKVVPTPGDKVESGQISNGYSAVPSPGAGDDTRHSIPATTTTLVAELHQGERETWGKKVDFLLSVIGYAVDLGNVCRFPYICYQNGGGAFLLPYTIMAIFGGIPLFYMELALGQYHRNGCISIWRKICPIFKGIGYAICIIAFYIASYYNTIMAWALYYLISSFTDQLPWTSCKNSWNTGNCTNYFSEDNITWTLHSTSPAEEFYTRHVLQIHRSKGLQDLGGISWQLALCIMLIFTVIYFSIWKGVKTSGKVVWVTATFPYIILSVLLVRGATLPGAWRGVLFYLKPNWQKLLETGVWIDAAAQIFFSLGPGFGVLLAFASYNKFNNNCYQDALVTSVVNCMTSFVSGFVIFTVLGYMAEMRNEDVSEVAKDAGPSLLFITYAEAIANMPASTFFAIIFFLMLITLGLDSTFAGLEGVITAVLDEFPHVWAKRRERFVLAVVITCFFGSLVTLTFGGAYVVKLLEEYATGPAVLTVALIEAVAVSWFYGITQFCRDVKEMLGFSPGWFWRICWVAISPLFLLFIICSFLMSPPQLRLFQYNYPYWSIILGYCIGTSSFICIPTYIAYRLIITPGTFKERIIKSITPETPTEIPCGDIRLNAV

## C[N+](C)(C)CCSS(C)(=O)=O
  EC50: 501 µM

## C[n+]1ccc(-c2ccc(SS(C)(=O)=O)cc2)cc1
  EC50: 31.6 µM
